From patent publication US20220281930A1, “COMPOSITIONS AND METHODS FOR THE TREATMENT OF PATHOLOGICAL PAIN AND ITCH” (DUKE UNIVERSITY, priority 2019, published 2022) come the findings set out here.

One assay concerns CDKs. The assay is described as follows: DARTS assay, CDKs. Format: binding, rat. The following applies: 20 μM KP. As for the experimental part:
Cultured primary rat cortical neurons were treated with either vehicle DMSO (0.1%) or 20 μM KP for 30 h. Cells were lysed in ice-cold lysis buffer (Tris.Cl pH8 50 mM, NaCl 150 mM, NP40 0.5%, N-dodecyl-b-D-maltoside 0.5%, Phosphatase Inhibitor (Pierce #88667) and Protease Inhibitor (Roche #11836153001)). Protein concentrations were determined by Bio-Rad DC Protein Assay kit using bovine albumin as standard. All steps were performed on ice. Samples were warmed to room temperature and digested with pronase (final concentration 1:500) for 30 min at 30° C. Digestion was halted using 0.5M EDTA. Only proteins not bound to KP were digested. The protein mixture was dialyzed using dialysis cassettes (Thermo Fisher 66203, 2K MWCO) and analyzed by LC-MS/MS method to identify proteins that are bound to KP, the latter step carried out in the Duke Proteomics Core Laboratory.
A drug affinity responsive target stability (DARTS) assay (Lomenick, et al., 2009, Proc Natl Acad Sci USA 106:21984-21989) was used to study direct binding of KP to GSK3ß (FIG. 8A) in primary cortical neurons. The findings were consistent with previous reports in cell lines (Knockaert, et al., 2002, The Journal of biological chemistry 277:25493-25501) yet novel in primary neurons. […]

For another assay, the system named is EGABA. The assay is described as follows: Perforated patch EGABA in SCDH lamina-II neurons of treated mice. The assay is classed as in vivo, mouse. The following applies: slices of PSNL juvenile mice treated with KP 30 mg/kg.
Assay [1] deals with KCC2 mRNA. The assay is described as follows: KCC2 mRNA RT-qPCR in microdissected spinal cord dorsal horn. The assay is classed as in vivo, mouse. The settings on record: KP 10 mg/kg; after PSNL vs vehicle. As for the experimental part:
oligodT-initiated reverse transcription of 1 μg total RNA, DNA-se treated, was subjected to RT-qPCR using primers specific for KCC2 for rat and KCC2 for human sequences, normalized for neuronal βIII-tubulin, as previously described (Yeo et al., 2009, J Neurosci 29:14652-14662). For cultured neurons, total RNA was extracted from pelleted cells, and for spinal cord tissue it was extracted from microdissected lumbar spinal cord dorsal horn.
With the aforementioned findings and in view of the SCDH as the likely site of analgesic action of KP (Coull et al., 2003, Nature 424:938-942; Gagnon et al., 2013, Nat Med 19:1524-1528), SCDH KCC2 expression and function in nerve injury and response to KP was assessed. […] To measure KCC2 mRNA, SCDH Rexed-layers I-II were microdissected with laser capture followed by RT-qPCR. SCDH KCC2 protein expression was measured morphometrically after KCC2 immunolabeling using SCDH laminae I-II as the region-of-interest (FIG. 5B).
In general terms: In qPCR the cycle at which signal appears reflects the starting amount.

Another assay relates to synaptophysin. The assay is described as follows: Immuno-cytochemistry morphometry of primary human cortical neurons, synaptophysin. The settings on record: 400 nM KP. The assay is classed as cell-based. How it is done:
(§1) The neuron-enriched cultures were established from fetal cortical specimens at 15-20 weeks of gestation. The protocols for tissue processing complied with all federal and institutional guidelines. The cultures were plated on PEI (polyethyleneimine solution) substrate and maintained in Neurobasal media supplemented with B27 as previously described (Pelsman et al., 2003, International journal of developmental neuroscience 21:117-124; Yeo et al., 2013, Proc Natl Acad Sci USA 110:4315-4320).
For immunostaining, the cultures were treated for 2-4 days with vehicle or 400 nM KP, fixed with 4% PFA at day 10, and processed for double-staining with anti-KCC2 and anti-synaptophysin or anti-NeuN (see Table 1).
The 0.34 micrometer confocal slices through entire cell layers at different optical fields (n=17-28 for each group) of the fixated cultures were acquired using a Zeiss LSM700 confocal microscope.
Image Z-stacks were analyzed using Imaris 9.2.1 software. Optical density intensity sum values for each stack/channel were divided by corresponding data volumes and the resulting values were normalized to the number of specifically labeled cells within each stack. There were no significant differences in the number of cells between vehicle and KP-treated groups.

The subject of assay [2] is KCC2 mRNA. The assay is described as follows: KCC2 mRNA RT-qPCR in primary human cortical neurons. Format: cell-based. The settings on record: KP 50, 100, 400 nM, 48 h. How it is done:
as §1
For RT-qPCR, the cell pellets were collected after treatments with vehicle (0.1% DMSO) or KP (50, 100, and 400 nM) for 48 h starting at day 6 in vitro.
Total RNA was isolated from cultured cell samples using Directzol RNA miniprep kit (ZymoResearch). The protocol includes DNAse digestion to exclude genomic DNA from preparations. Total RNA (1 μg) was reverse transcribed using oligo primers (dT) and SuperScriptIII first-strand synthesis kit (Invitrogen). Gene expression was assessed by quantitative real-time PCR using 2×SYBR Green Master Mix (Qiagen) and a three-step cycling protocol (anneal at 60° C./elongate at 72° C., denature at 95° C.). […] The amount of target messenger RNA (mRNA) in the experimental group relative to that in the control was determined from the resulting fluorescence and threshold values (Ct) using the ΔΔCt method. βIII-tubulin was used as housekeeping gene. […]

For the molecule `O=C1Cc2c([nH]c3ccc(Br)cc23)-c2ccccc2N1` [kenpaullone, 9-bromo-7,12-dihydro-indolo [3,2-d] [1]benzazepin-6(5H)-one], the “binding of KP to CDKs” value with CDKs was “not identified”. Further, the EGABA result with EGABA is given as “significant hyperpolarization”. Also, the “KCC2 mRNA expression in SCDH lamina-I/II” value in the assay with KCC2 mRNA [1] is recorded as “rescues significantly attenuated KCC2 mRNA expression”. Besides, the “increased synaptophysin expression relative to vehicle” value in the assay with synaptophysin is 54%. In the assay with KCC2 mRNA [2], the “KCC2 mRNA” value is listed as “increases in a dose-dependent manner”.
